Results: patent US20260115122A1, “PERSONAL CARE COMPOSITIONS COMPRISING PANCRATIUM MARITIMUM” (GALDERMA HOLDING SA, priority 2022, published 2026)

Test system: Normal Human Epidermal Melanocytes darkly-pigmented (NHEM-DP)
Test: Melanin content (melanin reduction) assay
Format: cell-based
Conditions: 72 h treatment, test product 0.004%, n=3, FIG. 2
Method: Normal Human Epidermal Melanocytes—NHEMs-DP. Normal Human Epidermal Melanocytes darkly-pigmented (NHEM-DP; Thermo Fisher Scientific, C1025C) were grown in M254 medium (Thermo Fisher Scientific, M254500) supplemented with Human Melanocyte Growth Supplement (HMGS; Thermo Fisher Scientific, S0025) and antibiotics (Gentamycin, Thermo Fisher Scientific, 15710049). The cells were maintained in a humidified incubator at 37° C. with a 5% CO2 atmosphere.
At the end of treatment, NHEM-DP cells (n=3) were lysed using NaOH (1N; Merck, 109956) solution. From the collected extracts, the protein content was quantified by a colorimetric assay (Pierce Coomassie Protein Assay Kit, Thermo Fischer Scientific, 23200) using a spectrophotometer (GloMax Explorer GM3500, Microplate Reader) for reading of the optical density at 600 nm. The melanin content was determined after sample heating for 1 h at 80° C. for its solubilization and reading of the optical density at 490 nm. Afterwards, the amount of melanin was determined on the basis of a standard curve using synthetic melanin (Sigma Aldrich, 8631) and then normalized to the total protein content. […]
At the end of the treatments, intracellular melanin was extracted from cell cultures and analyzed as described in materials and methods in Example 1. […]

`O=c1cc(CO)occ1O` [Kojic acid] was tested. Which “melanin content vs untreated control” value did it give?
Its value is “significantly decreased the melanin content”.
